Assay results reported in article PMC9247443 (Frontiers in Pharmacology, 2022).
Values joined by “and” are separate entries in the source; they are usually repeats but may differ in a detail not shown here. Identical values can stand only once.

Key:
[1] = biological target: T1, human S1P1 (Homo sapiens, UniProt P21453); test: [^35S]-GTPγS binding; format: biochemical; settings: mean ± SEM; for EC50: [^35S]-GTPγS binding, CHO cell membranes; for Human S1P1 IA: intrinsic activity relative to maximal S1P response (100%)
Description: (§1) Stable clones of Chinese hamster ovary (CHO) cells expressing human S1P1 and S1P5 were generated by transfecting the cells with the N-terminal hemagglutinin-tagged receptor in pcDNA3.1 expression vectors followed by antibiotic selection for S1P1 and S1P5 and picking of clones using cyclic adenosine monophosphate assay, fluorescence-activated flow cytometry using the associated tag as well as functional [^35S]-GTPγS binding assays. Stable clones of CHO cells expressing human S1P2, S1P3, and S1P4 with an N-terminal FLAG tag were purchased from Multispan, Inc. (Hayward, CA, United States; catalog numbers C1051-1, CG1049-1, and CG1052-1 for S1P2, S1P3, and S1P4, respectively). Cells were grown to confluence in adherent culture in 500-cm^2 culture trays before being detached with cell scraper in cell-lifting buffer (10 mM HEPES/154 mM NaCl/6.85 mM ethylenediaminetetraacetic acid [EDTA], pH 7.4) and pelleted by centrifugation for 5 min at 1000 rpm. Cell pellets were then resuspended and homogenized in membrane preparation buffer (10 mM HEPES/10 mM EDTA, pH 7.4) using a Polytron PT 1200E homogenizer (Kinematica, Luzern, Switzerland). To collect the membrane pellet, cell homogenates were centrifuged at 48,000 × g at 4°C for 30 min. After discarding the supernatant, the pellet was rehomogenized and recentrifuged as described above. The final pellet was collected and homogenized in ice-cold resuspension buffer (10 mM HEPES and 0.1 mM EDTA, pH 7.4).
(§2) To quantitate receptor activation and G protein coupling, [^35S]-GTPγS binding assays were performed in 96-well nonbinding surface plates (Corning, New York, New York, United States; catalog number 3604) in a final volume of 200 μl. Test compounds were serial diluted in DMSO directly to the assay plate using the Tecan D300E digital printer in a total volume of 0.4 μl. […] All wells were brought to a total volume of 40 μl with assay buffer, and the reaction was initiated by the addition of 120 μl/well of assay buffer containing a mixture of 40 μg/ml S1P1–S1P5 membranes, 5–50 μM GDP (5 μM for S1P2 and S1P4, 16.67 μM GDP for S1P1 and S1P5, and 50 μM for S1P3), and 2.5 mg/ml of WGA PVT SPA beads (Perkin Elmer catalog number RPNQ0001). Assay plates were sealed and incubated at room temperature with gentle agitation for 30 min before adding 40 μl/well of 5× [^35S]-GTPγS (200 p.m. final) (Perkin Elmer, catalog number NEG030X250UC) in basic assay buffer (20 mM HEPES/10 mM MgCl2/100 mM NaCl/1 mM EDTA, pH 7.4) and then plates were resealed for an additional 40-min incubation at room temperature with gentle agitation. The experiment was terminated by centrifugation of the plates at 1000 rpm for 3 min using an Eppendorf (Hamburg, Germany) 5810R centrifuge and read on the MicroBeta2 microplate scintillation counter. Data were analyzed as raw counts per 40 s per well as collected from the MicroBeta2 counter. Raw counts were analyzed with GraphPad Prism version 8.0.0 using nonlinear regression to generate concentration response curves.

[2] = biological target: T2, human S1P4 (Homo sapiens, UniProt O95977); test: [^35S]-GTPγS binding; format: biochemical; settings: mean ± SEM; for EC50: [^35S]-GTPγS binding, CHO cell membranes; for Human S1P4 IA: intrinsic activity relative to maximal S1P response (100%)
T2 construct: membrane preparation
T2 sequence (O95977 1-384): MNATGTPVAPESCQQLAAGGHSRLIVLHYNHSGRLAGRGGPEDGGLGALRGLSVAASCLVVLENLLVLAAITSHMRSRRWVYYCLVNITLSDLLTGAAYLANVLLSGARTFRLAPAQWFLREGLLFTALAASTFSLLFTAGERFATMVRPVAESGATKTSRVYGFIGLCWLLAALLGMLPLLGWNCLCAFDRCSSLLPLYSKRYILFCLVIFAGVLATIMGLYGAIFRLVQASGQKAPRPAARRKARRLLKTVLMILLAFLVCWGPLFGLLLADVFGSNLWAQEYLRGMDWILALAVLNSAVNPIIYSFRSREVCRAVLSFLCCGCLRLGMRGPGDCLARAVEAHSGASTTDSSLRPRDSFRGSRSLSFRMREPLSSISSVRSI
Description: as §1, §2

[3] = biological target: T3, human S1P2 (Homo sapiens, UniProt O95136); test: [^35S]-GTPγS binding; format: biochemical; settings: mean ± SEM; for EC50: [^35S]-GTPγS binding, CHO cell membranes; for Human S1P2 IA: intrinsic activity relative to maximal S1P response (100%)
T3 construct: membrane preparation
Description: as §1, §2

[4] = biological target: T4, human S1P3 (Homo sapiens, UniProt Q99500); test: [^35S]-GTPγS binding; format: biochemical; settings: mean ± SEM; for EC50: [^35S]-GTPγS binding, CHO cell membranes; for Human S1P3 IA: intrinsic activity relative to maximal S1P response (100%)
T4 construct: membrane preparation
Description: as §1, §2

[5] = biological target: T5, human S1P5 (Homo sapiens, UniProt Q9H228); test: [^35S]-GTPγS binding; format: biochemical; settings: for EC50: [^35S]-GTPγS binding, CHO cell membranes; for EC50 / Human S1P5 IA: mean ± SEM; for Human S1P5 IA: intrinsic activity relative to maximal S1P response (100%); for GTPγS potency for human S1P5 weaker than that for S1P1: S1P5 versus S1P1 EC50
Description: as §1, §2

[6] = biological target: T1, human S1P1; test: S1P1-mediated β-arrestin recruitment assay (PathHunter eXpress EDG1 CHO-K1); format: cell-based; settings: for Emax: CHO-K1, read-out: β-arrestin recruitment Intrinsic Activity, human S1P1; for EC50: EDG1(S1P1)/β-arrestin CHO-K1 cells, 90 min, mean ± SEM (n = 3–5) or SD (n = 2)
Description: Human S1P1 β-arrestin assays were carried out using the PathHunter® eXpress EDG1 CHO-K1 β-arrestin GPCR Assay (DiscoverX, Cat# 93-0207E2, including frozen cell stock, assay media, and assay plate). EDG1(S1P1)/β-arrestin CHO-K1 cells were thawed by adding 0.5 ml warm media to the vial. The cells were then transferred to 11.5 ml warm media, seeded at a density of 10,000 cells per well in a 96 well assay plate in a volume of 100 μL per well and incubated overnight in a 37°C CO2 incubator. […] Compounds were then added to the EDG1(S1P1)/β-arrestin CHO-K1 cells—10 μl per well of the 11X stock was added to the 100 ul per well of cells and the plate was incubated for 90 min in a 37°C CO2 incubator. The detection solution was prepared according to the manufacture’s protocol and 55 μl was added to each well of assay plate. The plate was then incubated for 1 h at room temperature before being read on a SpectraMax5 plate reader. Basal β-arrestin recruitment was determined using medium containing DMSO alone.

[7] = biological target: T1, human S1P1; test: [^3H]-ozanimod competition radioligand binding
Description: as §1
(§3) Assay plates were sealed and incubated at room temperature with gentle agitation for 60 min before filtration as described above.
(§4) Data were again analyzed as raw counts per 60 s per well collected from the MicroBeta2 counter.

[8] = biological target: T5, human S1P5; test: [^3H]-ozanimod competition radioligand binding
Description: as §1, §3, §4

[9] = biological target: T5, human S1P5; test: Saturation radioligand binding with [^3H]-ozanimod; settings: CHO cell membranes expressing human S1P5, saturation binding
Description: as §1, with “Cell pellets were then resuspended and homogenized in membrane preparation buffer (10 mM HEPES/10 mM EDTA, pH 7.4) using a Polytron PT 1200E homogenizer (Kinematica, Luzern, Switzerland). To collect the membrane pellet, cell homogenates were centrifuged at 48,000 × g at 4°C for 30 min. After discarding the supernatant, the pellet was rehomogenized and recentrifuged as described above. The final pellet was collected and homogenized in ice-cold resuspension buffer (10 mM HEPES and 0.1 mM EDTA, pH 7.4).” left out
Filter plates were prepared by adding 80 μl/well of 0.3% poly (ethyleneimine) and incubating for 60 min at room temperature before washing with 150 ml of filtration buffer (50 mM Tris HCl [pH 7.4], 5 mM MgCl2, and 1 mM EDTA) using a FilterMate-96 harvester. […] Filter plates were then allowed to air dry before the addition of 50 μL/well of MicroScint-20 cocktail, plate sealing, and reading on a MicroBeta2 microplate scintillation counter. […]

T4 sequence (Q99500 whole entry): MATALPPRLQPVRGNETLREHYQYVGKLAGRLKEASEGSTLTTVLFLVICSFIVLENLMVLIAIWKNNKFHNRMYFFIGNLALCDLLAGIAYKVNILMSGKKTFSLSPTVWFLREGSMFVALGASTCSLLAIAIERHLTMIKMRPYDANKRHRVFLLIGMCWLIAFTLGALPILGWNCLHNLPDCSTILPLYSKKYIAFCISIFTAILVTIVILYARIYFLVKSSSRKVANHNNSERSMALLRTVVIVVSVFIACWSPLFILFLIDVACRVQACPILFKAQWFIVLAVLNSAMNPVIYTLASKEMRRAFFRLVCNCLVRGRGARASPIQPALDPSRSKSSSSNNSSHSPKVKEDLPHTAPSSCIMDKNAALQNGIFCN
T3 sequence (O95136 whole entry): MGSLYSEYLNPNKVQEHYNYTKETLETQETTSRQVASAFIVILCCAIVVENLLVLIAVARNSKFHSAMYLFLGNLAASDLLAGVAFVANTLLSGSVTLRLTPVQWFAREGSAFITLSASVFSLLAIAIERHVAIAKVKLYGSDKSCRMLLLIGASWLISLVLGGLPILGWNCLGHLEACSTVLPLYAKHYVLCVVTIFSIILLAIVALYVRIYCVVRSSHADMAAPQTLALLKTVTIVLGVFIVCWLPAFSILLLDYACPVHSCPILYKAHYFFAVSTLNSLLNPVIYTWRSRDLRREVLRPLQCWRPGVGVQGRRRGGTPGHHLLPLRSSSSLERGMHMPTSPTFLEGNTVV
T5 sequence (Q9H228 whole entry): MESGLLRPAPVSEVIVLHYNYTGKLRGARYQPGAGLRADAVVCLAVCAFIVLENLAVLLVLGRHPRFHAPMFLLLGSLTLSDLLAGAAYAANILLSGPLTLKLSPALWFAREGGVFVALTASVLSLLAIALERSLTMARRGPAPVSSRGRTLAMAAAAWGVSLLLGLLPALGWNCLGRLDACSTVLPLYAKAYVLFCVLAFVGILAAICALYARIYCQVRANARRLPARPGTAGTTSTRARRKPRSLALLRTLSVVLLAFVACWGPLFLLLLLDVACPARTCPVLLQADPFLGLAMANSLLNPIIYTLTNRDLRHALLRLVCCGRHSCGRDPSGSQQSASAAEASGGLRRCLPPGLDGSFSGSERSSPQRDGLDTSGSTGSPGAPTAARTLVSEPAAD
T1 sequence (P21453 whole entry): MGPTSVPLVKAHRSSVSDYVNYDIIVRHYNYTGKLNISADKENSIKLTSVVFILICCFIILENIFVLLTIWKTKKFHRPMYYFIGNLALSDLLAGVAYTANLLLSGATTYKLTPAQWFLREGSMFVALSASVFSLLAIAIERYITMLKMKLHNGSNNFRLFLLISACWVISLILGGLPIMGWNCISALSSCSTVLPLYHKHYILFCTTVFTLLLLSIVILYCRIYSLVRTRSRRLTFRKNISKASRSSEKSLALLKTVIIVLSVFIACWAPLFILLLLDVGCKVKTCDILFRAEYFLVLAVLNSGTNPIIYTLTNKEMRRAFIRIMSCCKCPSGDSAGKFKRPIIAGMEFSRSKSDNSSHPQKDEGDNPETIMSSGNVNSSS

Row | EC50 [1] | Human S1P1 IA [1] | EC50 [2] | Human S1P4 IA [2] | EC50 [3] | EC50 [4] | Human S1P3 IA [4] | EC50 [5] | Human S1P5 IA [5] | Emax [6] | EC50 [6] | Ki [7] | Ki [8] | GTPγS potency for human S1P5 weaker than that for S1P1 [5] | Human S1P5 IA ([5]; listed as amiselimod-p) | Kd [9] | displacement of specific [^3H]-ozanimod binding, S1P1 ([7]; result in words) | displacement of specific [^3H]-ozanimod binding, S1P5 ([8]; result in words) | SMILES | Human S1P2 IA [3]
1 | 0.26 nM | 85.7 ± 3.6% | 3.13 ± 0.29 nM | 56.3 ± 3.8% | > 10000 nM | 3.17 ± 0.26 nM | 25.7 ± 3.8% | 0.69 ± 0.19 nM | 45.8 ± 7.6% | 72.3 ± 5.4% | 2.98 ± 0.96 nM | 0.22 ± 0.02 nM | 0.24 ± 0.04 nM | – | – | – | – | – | NC(CO)(CCc1ccc(Sc2cccc(OCc3ccccc3)c2)cc1Cl)COP(=O)(O)O (stereo not drawn) [KRP-203-p, KRP-203-phosphate] | NR (NR indicates no response where the maximal response was less than 10% of that of S1P)
2 | – | 84.9 ± 2.3% | 2.06 ± 0.3 nM | 59.2 ± 5.4% | – | – | 106.5 ± 8.3% | – | 74% and 74 ± 5.1% | 79.8 ± 4.3% | – | – | – | – | – | – | – | – | CCCCCCCCc1ccc(CCC(N)(CO)COP(=O)(O)O)cc1 (stereo not drawn) [FTY720-p, FTY720-phosphate] | 33.2 ± 1%
3 | 5.48 ± 0.46 nM | 86.6 ± 1.1% | 1130 ± 189 nM | 40.4 ± 4.6% | > 10000 nM | 1160 ± 354 nM | 81.2 ± 17% | 58.9 ± 6.75 nM | 82 ± 4.4% | 75.8 ± 1.8% | 11.3 ± 2.32 nM | 6.73 ± 0.62 nM | 16.3 ± 0.71 nM | approximately 10 fold | – | – | – | – | O=C(O)C[C@H]1CCc2c1[nH]c1ccc(OCc3ccc(C4CCCC4)c(C(F)(F)F)c3)cc21 [Etrasimod] | NR (NR indicates no response where the maximal response was less than 10% of that of S1P)
4 | 0.46 ± 0.05 nM | 82.1 ± 0.9% | 384 ± 67.8 nM | 81.5 ± 2.4% | > 10000 nM | > 1110 nM | 90.7 ± 2.5% | 0.3 ± 0.02 nM | 102 ± 9.1% | 68.6 ± 9.2% | 9.3 ± 2.79 nM | 0.74 ± 0.09 nM | 0.43 ± 0.08 nM | – | – | – | – | – | CCc1cc(/C(C)=N/OCc2ccc(C3CCCCC3)c(C(F)(F)F)c2)ccc1CN1CC(C(=O)O)C1 [Siponimod] | NR (NR indicates no response where the maximal response was less than 10% of that of S1P)
5 | 0.15 ± 0.01 nM | 84.1 ± 1.6% | 2.23 ± 0.13 nM | 122.2 ± 3.6% | > 4000 nM | 19 ± 2.98 nM | 29.1 ± 1.6% | 0.58 ± 0.08 nM | 76.6 ± 6.9% | 76.1 ± 11.6% | 2.83 ± 2.21 nM | 0.13 ± 0.02 nM | 0.25 ± 0.04 nM | – | 76.6% | – | – | – | CCCCCCCOc1ccc(CCC(N)(CO)COP(=O)(O)O)cc1C(F)(F)F (stereo not drawn) [Amiselimod-p] | NR (NR indicates no response where the maximal response was less than 10% of that of S1P)
6 | – | – | – | – | – | – | – | – | – | – | – | – | – | – | – | 3.13 nM | – | – | [3H]CC([3H])(C)Oc1ccc(-c2nc(-c3cccc4c3CC[C@@H]4NCCO)no2)cc1C#N (stereo partly drawn) [[^3H]-ozanimod] | –
7 | 3.42 ± 1.17 nM | 85.8 ± 6.2% | > 10000 nM | 26.5 ± 2.5% | > 10000 nM | 89.5 ± 14.3 nM | 82.1 ± 7.5% | 43.2 ± 12 nM | 92.9 ± 9.8% | 61.2 ± 1.6% | 2.66 ± 0.42 nM | 9.37 ± 1.31 nM | 17.4 ± 4.32 nM | approximately 10 fold | – | – | – | – | CCC/N=C1\S/C(=C\c2ccc(OC[C@H](O)CO)c(Cl)c2)C(=O)N1c1ccccc1C [Ponesimod] | NR (NR indicates no response where the maximal response was less than 10% of that of S1P)
8 | – | – | – | – | – | – | – | – | – | – | – | 2.33 ± 0.17 nM | – | – | – | – | completely displaced | completely displaced | CCCCCCCCCCCCC/C=C/[C@@H](O)[C@@H](N)COP(=O)(O)O [S1P, sphingosine 1-phosphate] | –
9 | – | 85 ± 1% | 1490 ± 306 nM | 39.4 ± 5.3% | > 10000 nM | > 1110 nM | 89.4 ± 7.4% | 5.84 ± 0.51 nM | 97 ± 3.7% | 68.7 ± 3.5% | – | – | 1.93 ± 0.07 nM | approximately 10 fold | – | – | – | – | CC(C)Oc1ccc(-c2nc(-c3cccc4c3CC[C@@H]4NCCO)no2)cc1C#N [Ozanimod] | 34.8 ± 1%
